Where two headings read alike, the source gives them in different places.
Legend:
[1] = test system: human renal tissues freshly obtained from surgery; test: staining of fresh human renal tumor specimens with IR783 (FIG. 20)
Source text: The compounds of the invention can also be used to detect cancer in fresh (or frozen or preserved) cells. In one embodiment of this aspect of the invention, cells are obtained from small needle biopsy, needle aspiration, or other methods as known in the art. The cells after dye uptake is completed can be minced, sliced, smeared onto a slide, or any other preparation. An amount of one or more compound of the invention can be dropped onto the cells or otherwise contacted with the cells (shaken in a tube, for example). […] The cells can be imaged under a fluorescence microscope equipped with a NIR filter, for example.

[2] = Experimental: Mice were injected with 20 μg/Kg of IR783 and IR780 (which was 100× of the imaging dose which was 0.2 μg/Kg) and results were compared for a 28 day period. […] Zero grams means the mouse died. ICG is a FDA approved dye used for several diagnostic purposes. ICG is considered to be nontoxic. ICG is used here as a measure of the toxicity of the tested compounds.
Toxicity test of dye based on body weight gained during the treatment period from 0 to 14 days.

H358 = test: uptake of IR783 in cell lines: lung; assay type: cell-based, human
Source text: The uptake of IR783 was studied and confirmed in a variety of human cell lines as shown below: […]

CC1(C)C(=CC=C2CCCC(C=CC3=[N+](CCCCS(=O)(=O)[O-])c4ccccc4C3(C)C)=C2Cl)N(CCCCS(=O)(=O)[O-])c2ccccc21.[Na+] [IR783]
distribution in renal tissue, confocal microscopy ([1]; tissues incubated with IR783, washed): concentrated in renal cancer but not normal kidney cells
fluorescence imaging of tumor regions ([1]; tumor, transitional and normal sections): intense uptake and retention
toxicity ([2]; 20 μg/Kg (100× of the imaging dose), 28 day period): not toxic
body weight ([2]; dose 1X (imaging dose 0.2 μg/Kg), 0 day): 20.29 g
body weight ([2]; dose 1X, 1 day): 20.20 g
body weight ([2]; dose 1X, 2 day): 20.23 g
body weight ([2]; dose 1X, 3 day): 20.32 g
body weight ([2]; dose 1X, 4 day): 20.34 g
body weight ([2]; dose 1X, 5 day): 21.00 g
body weight ([2]; dose 1X, 6 day): 21.87 g
body weight ([2]; dose 1X, 7 day): 22.32 g
body weight ([2]; dose 1X, 14 day): 23.91 g
body weight ([2]; dose 1X, 28 day): 24.86 g
body weight ([2]; dose 10X, 0 day): 20.57 g
body weight ([2]; dose 10X, 1 day): 20.61 g
body weight ([2]; dose 10X, 2 day): 20.59 g
body weight ([2]; dose 10X, 3 day): 20.98 g
body weight ([2]; dose 10X, 4 day): 21.02 g
body weight ([2]; dose 10X, 5 day): 21.34 g
body weight ([2]; dose 10X, 6 day): 21.76 g
body weight ([2]; dose 10X, 7 day): 22.54 g
body weight ([2]; dose 10X, 14 day): 24.01 g
body weight ([2]; dose 10X, 28 day): 24.87 g
body weight ([2]; dose 100X (20 μg/Kg), 0 day): 19.85 g
body weight ([2]; dose 100X, 1 day, zero grams means the mouse died): 19.74 g
body weight ([2]; dose 100X, 2 day, zero grams means the mouse died): 20.01 g
body weight ([2]; dose 100X, 3 day, zero grams means the mouse died): 20.39 g
body weight ([2]; dose 100X, 4 day, zero grams means the mouse died): 20.43 g
body weight ([2]; dose 100X, 5 day, zero grams means the mouse died): 21.01 g
body weight ([2]; dose 100X, 6 day, zero grams means the mouse died): 21.23 g
body weight ([2]; dose 100X, 7 day, zero grams means the mouse died): 22.00 g
body weight ([2]; dose 100X, 14 day, zero grams means the mouse died): 23.76 g
body weight ([2]; dose 100X, 28 day, zero grams means the mouse died): 24.61 g
Uptake (H358): Strong

Source: patent US11738095B2, “Cyanine-containing compounds for cancer imaging and treatment” (Emory University, priority 2007, dated 2023)
